Reference: patent publication US12297241B2, “Method to engineer transplantable human tissues” (The Regents of the University of California, priority 2018, dated 2025)

Columns and labels:
[1] = tested on: miR-124-HSV-tk teratomas (H1 ESC line); assay: In vivo enrichment of miR-124-HSV-tk teratomas with intratumoral GCV, scRNA-seq; parameters: species or system Rag2−/−;γc−/− immunodeficient mice
Experimental: (§1) FIGS. 1A-1F: Molecular Sculpting of the Teratoma through miRNAs. (FIG. 1A) Schematic of miRNA-HSV-tk-GFP construct. 2A is gene encoding for a self-cleaving peptide. Upon transcription of construct it will silenced if appropriate endogenously expressed miRNA is present in the cell. (FIG. 1B) Schematic of how developing teratoma should form in the presence of Ganciclovir (GCV, 80 mg/kg/d) if cells were transduced with miRNA-HSV-tk construct. (FIG. 1C) Phase images from light microscopy showing H1 cell survival after 3 and 5 days in the presence of GCV (10 μM). H1 ESC line was either transduced with GFP control (EGIP backbone) or miR-124-HSV-tk-GFP. (FIG. 1D) Fluorescent microscopy and phase images showing HEK293T and HeLA cells transduced with either No GFP control, HSV-tk-GFP, or miR-21-HSV-tk-GFP. (FIG. 1E) Quantification of (FIG. 1D) using flow cytometry and gating based on the presence or absence of GFP. (FIG. 1F) In vivo studies of miR-124-HSV-tk-GFP teratomas in the presence of GCV administration (80 mg/kg/d) showing cell type fraction log fold-change based on different cell types with accompanying Z-scores compared to miR-124-HSV-tk-GFP teratomas in the absence of GCV.
Applicant then tested the miRNA-HSV-tk constructs in vivo with the goal to grow a teratoma that is enriched for a desired lineage. For this task the miR-124-HSV-tk construct was selected to enrich for the neural lineage. After the H1 ESC line was successfully transduced and selected for the miR-124-HSV-tk construct, cells were subcutaneously injected into Rag2^−/−;γc^−/− immunodeficient mice and allowed to form teratomas as described above. Once teratomas reached a minimum of 1 cm in diameter, intratumoral injections with GCV (80 mg/kg/d) for half to tumors began until they grew an appropriate time for extraction (˜10 weeks).
However, enrichment for foregut was also observed. To the best os Applicant's knowledge, there is no known published literature on miR-124 having a role in foregut development.

[2] = tested on: H1 ESC line; assay: HSV-tk suicide gene killing test with GCV in transduced H1 ESC line; type: cell-based, human; details: GCV 10 μM, 5 days
Experimental: as §1, with “(FIG. 1F) In vivo studies of miR-124-HSV-tk-GFP teratomas in the presence of GCV administration (80 mg/kg/d) showing cell type fraction log fold-change based on different cell types with accompanying Z-scores compared to miR-124-HSV-tk-GFP teratomas in the absence of GCV.” left out
miRNA-HSV-tk constructs were tested in vitro in the H1 ESC line. The functionality of the suicide gene HSV-tk was assessed in the presence of GCV. […] Furthermore, the unique miRNA specificity of the constructs was assessed based on cell type. […]

[3] = intratumoral GCV 80 mg/kg/d vs tumor without GCV

## Nc1nc(O)c2ncn(COC(CO)CO)c2n1 [GCV, ganciclovir]
[1]; intratumoral GCV 80 mg/kg/d until extraction (~10 weeks) vs tumor without GCV
  tumor size: smaller size
[1]; [3]
  cell types depleted (scRNA-seq): muscle, retinal pigmented epithelium, and many other cell types
  cell-type fraction enriched (scRNA-seq): early neurons, neuronal progenitors, Schwann cells, and foregut
  external heterogeneity of tumor: less heterogeneous
[2]; H1 cells transduced with GFP control (EGIP backbone alone)
  cell survival in the presence of GCV: unaffected
[2]; H1 cells transduced with the miRNA-HSV-tk construct
  cell survival in the presence of GCV: total cell death
